According to PMC4213378, “Pharmacokinetics and Efficacy of the Spleen Tyrosine Kinase Inhibitor R406 after Ocular Delivery for Retinoblastoma” (Pharmaceutical Research, 2014):

Legend:
[1] = Crashing upon dilution of DMSO stock in PBS; format: physicochemical
Excerpt: Supplement 11095_2014_1399_MOESM1_ESM.docx, table 14: Table S14. R406 phenylsulfonate salt and free base crashing upon dilution of DMSO stock in PBS | column: Measured Concentration

RB355 cells [2] = assay: Activated caspase 3 immunostaining of RB355 cells; format: cell-based
[3] = Concentration and stability of R406 in castor oil and castor oil emulsion; format: physicochemical
Procedure: For oral delivery of R788, the target dose of 25 mg/kg R788 was administered by oral gavage as a 4 mM solution in 0.01 N citrate buffer, pH 6 ([9]). For subconjunctival administration, R788 was prepared at a concentration of 4 mM in 2% PEG-800 and filtered through a 0.22 μm filter prior to use (see Table S1). R788 was also administered subconjunctivally as a suspension at a concentration of 25 mM in 10% 2-hydroxylpropyl-β-cyclodextrin (HPβCD, Sigma-Aldrich). For subconjunctival administration, R406 phenylsulfonate salt was administered at a concentration of 800–900 μM as a cosolvent solution in a formulation of 5% Cremaphor-eL, 0.5% ethanol, 0.2% Tween 80 and 94.3% PBS, filtered through a 0.22 μm filter prior to use (see Table S2). R406 phenylsulfonate salt was also administered subconjunctivally at a dose of 31.4 mM solution in DMSO. R406 free base was administered subconjunctivally at a concentration of 6.5 mM as a 25% castor oil (Sigma-Aldrich) emulsion. This emulsion was prepared by mixing castor oil: ethanol (1:1) solution of R406 (approx. 35 mM), in vacuo evaporation of the ethanol, and centrifugation to remove any excess R406, then emulsifying the R406 oil phase in an aqueous phase comprised of Cremaphor-eL, Tween 80 and PBS (final composition of the emulsion: 25% castor oil, 5% Cremaphor-eL, 0.2% Tween-80, 69.8% PBS) by probe sonication. For intravitreal injection, R788 solution was prepared by filtering a 0.12 mM (120 μM) solution of R788 in saline through a 0.22 μm filter. […] For topical delivery, 25–30 mM suspensions were prepared in 5% HPβCD. R406 or R788 concentration in all formulations was determined by UPLC prior to study (in cases where formulation was filtered before administration, concentration was determined post-filtering) Table I.
An emulsion of 30% castor oil, 5% Cremaphor, 4% T80, 61% PBS was prepared and samples were stored at 4 °C and room temperature (25 °C). Samples were diluted and OD600 for each dilution was measured in triplicate on the day of emulsion preparation (storage time = 0 days) and after 6 days of storage. OD600 was measured using a black Costar clear bottom plate and a Spectramax plate reader.
For storage stability in emulsion, n =4.

RB355 cells [4] = assay: EdU incorporation (DNA synthesis) in RB355 cells; format: cell-based; settings: 5 μM R406, 0-72 h exposure
Procedure: To determine if the lack of evidence of efficacy of subconjunctival R406 in a solution formulation was due to suboptimal ocular exposure, we performed a pharmacokinetic experiment. Briefly, 10 μl of R406 solution formulation was delivered to each eye of 15 mice and the plasma and vitreous were harvested at different time points (0.5, 1, 2, 4, and 8 h). The concentration of R406 was measured at each time point in each tissue and the concentration of drug was plotted as a function of time (Fig. 2). The 4 h and 8 h data are not shown, as the majority of R406 concentrations in these samples were BLOQ. […] Importantly, the maximal concentration achieved (0.05 μM) was well below the concentration required to kill the most sensitive retinoblastoma cell line (RB355 in culture, Fig. S3). RB355 cells in culture were treated with DMSO, 1, 2.5, or 5 μM of R406 for varied exposure durations (0, 6, 12, 24, 48 and 72 h). […] Incorporation of 5-ethynyl-2′-deoxyuridine (EdU) was used to detect DNA synthesis. […] Viability of RB355 cells in culture is reduced to 50% of the viability of DMSO treated cells when exposed to 2.5 μM R406 for an exposure duration between 24 and 48 h or 5 μM R406 for an exposure duration between 12 and 24 h.
RB335 cells were seeded in 6-well dishes. […] Luminescence was read after 15 min on an Envision plate reader (Perkin Elmer). […]

retinoblastoma cells = tested on: retinoblastoma cells; set-up: method as in PMID 22237022; settings: cited from earlier work
[5] = Storage Time = 24 hr, room temperature
[6] = Storage Time = 48 hr, room temperature
[7] = Storage Time = 72 hr, room temperature

Row | SMILES | Measured Concentration ([1]; 10 mM DMSO stock diluted 1 in 10 in PBS prior to filtration) [µM] | Measured Concentration ([1]; DMSO stock diluted 1 in 10 in PBS, 0.22 micron filtered) [µM] | Measured Concentration ([1]; DMSO stock diluted 1 in 20 in PBS prior to filtration) [µM] | Measured Concentration ([1]; DMSO stock diluted 1 in 20 in PBS, 0.22 micron filtered) [µM] | caspase 3+ activation compared to untreated or DMSO treated cells (RB355 cells [2]; 1 μM R406, any exposure time up to 48 h) | proportion of activated caspase 3+ cells (RB355 cells [2]; 2.5 and 5 μM R406, 0-72 h exposure) | minimal exposure required to kill retinoblastoma cells in culture (RB355 cells [2]; for at least 12 h) [µM] | Average Concentration in castor oil emulsion ([3]; Initial Concentration, room temperature, n=4) [mM] | time emulsion was stable ([3]; R406 castor oil emulsion, room temperature) [h] | Average Concentration in castor oil emulsion [3, 5] [mM] | Percentage of Initial Concentration in castor oil emulsion [3, 5] [%] | Average Concentration in castor oil emulsion [3, 6] [mM] | Percentage of Initial Concentration in castor oil emulsion [3, 6] [%] | Average Concentration in castor oil emulsion [3, 7] [mM] | Percentage of Initial Concentration in castor oil emulsion [3, 7] [%] | concentration of R406 achieved in emulsion ([3]; castor oil emulsion) [mM] | time stable in castor oil emulsion ([3]; room temperature) | proportion of cells that incorporated EdU (RB355 cells [4]) | induction of caspase-mediated cell death of retinoblastoma cells in vitro (retinoblastoma cells)
1 | COc1cc(Nc2ncc(F)c(Nc3ccc4c(n3)NC(=O)C(C)(C)O4)n2)cc(OC)c1OC.O=S(=O)(O)c1ccccc1 [R406 phenylsulfonate salt] | 1010 | 88 | 559 | 98 |  |  |  |  |  |  |  |  |  |  |  |  |  |  | 
2 | COc1cc(Nc2ncc(F)c(Nc3ccc4c(n3)NC(=O)C(C)(C)O4)n2)cc(OC)c1OC [R406] |  |  |  |  | did not show any increase in caspase 3+ activation | increased with increasing exposure duration | > 1 | 12.39 ± 1.21 | 48 | 11.03 ± 2.09 | 89.0 | 9.78 ± 3.13 | 78.9 | 12.45 ± 1.43 | 100.5 | 6.5 | at least 72 hours | decreased with increasing exposure time | can induce caspase-mediated cell death
